A word on the IC50: it is the concentration at which inhibition is half-maximal. A high value points to weaker potency in that assay.

Results on 61 compounds are retold here after US10633389B2, “CARM1 inhibitors and uses thereof” (Epizyme, Inc., priority 2013, dated 2020).

Each structure is given as a SMILES string. Where only a bound is given, the exact number is not on record here.

This test deals with asymmetric di-methyl PABP1 in RKO cells. As to the kind of experiment: RKO methylation assay, In Cell Western (ICW) for asymmetric di-methyl PABP1. The test is classed as cell-based. The note with it: Homo sapiens, RKO, Cellular potencies, ICW PABP1me2a. The gist of the method: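 In-cell Western on fixed RKO cells after 48 h compound exposure: anti-asymmetric di-methyl PABP1 signal at 800 nm over DRAQ5 DNA signal at 700 nm. Percent inhibition set between DMSO wells and wells with 20 μM reference compound; IC50 curves fitted in triplicate.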
`CNCC(O)COc1cccc(-c2nc(-c3sc(C)nc3C)cc(N(C)C3CCOCC3)n2)c1` (stereo not shown) [Example 569-1a] returned an IC50 of 10 to 20 µM.

Take `CNCC(O)COc1cc(Cl)cc(-c2nc(Nc3cncnc3)cc(-c3c(C)noc3C)n2)c1` (stereo not shown) [Example 9-1a]: the IC50 lay in the range of 5 to 10 µM.

The compound `CCS(=O)(=O)N1CCC(Nc2nc(-c3cccc(OCC(O)CNC)c3)nc(-c3c(C)noc3C)c2C)C1` (stereo not shown) [Example 197-1a] displayed a half-inhibitory concentration (IC50) of under 5 µM.

The compound `CNCC(O)COc1cccc(-c2nc(-c3ccncc3)c(C)c(N(C)[C@@H]3CCOC3)n2)c1` (stereo partly shown) [Example 339-1a] had an IC50 of 10 to 20 µM.

Consider `CNCC(O)COc1cccc(-c2nc(NC3CCOCC3)c(C)c(-c3c(C)noc3C3CC3)n2)c1` (stereo not shown) [Example 236-1a], for which the IC50 was under 5 µM.

In the case of `CNCC(O)COc1cccc(-c2nc(NC3CCN(C(=O)C4CC4)CC3)c(C)c(-c3c(C)noc3C)n2)c1` (stereo not shown) [Example 245-1a], the IC50 is under 5 µM.

Take `CNC[C@@H](O)COc1ccc(C(F)(F)F)c(-c2nc(NC3CCOCC3)c(C)c(-c3c(C)noc3C)n2)c1` [Example 200-3]: the IC50 was under 5 µM.

Consider `CNC[C@H](O)COc1ccc(Cl)c(-c2nc(N[C@@H]3CCOC3)c(C)c(-c3c(C)noc3C)n2)c1` [Example 94-3], for which the IC50 was under 5 µM.

In turn, `CNCC(O)COc1cccc(-c2nc(-c3c(C)noc3C)cc(N(C)c3cnc(OC)nc3)n2)c1` (stereo not shown) [Example 51-1a] gave an IC50 of 10 to 20 µM.

For the compound `CNCC(O)COc1cccc(-c2nc(-c3c(C)noc3C)c(C)c(N3CCO[C@@H](CN(C)C)C3)n2)c1` (stereo partly shown) [Example 148-1a], the concentration for half-maximal inhibition (IC50) is under 5 µM.

Take `CNCC(O)COc1cccc(-c2nc(-c3c(C)noc3C)c(C)c(N3CC4(CN(C(=O)OC)C4)C3)n2)c1` (stereo not shown) [Example 299-1a]: the IC50 is under 5 µM.

Compound `CNC[C@@H](O)COc1ccc(Cl)c(-c2nc(-c3c(C)noc3C)c(C)c(N(C)[C@H]3CC[C@@H](OC)C3)n2)c1` [Example 213-3] displayed an IC50 of under 5 µM.

In the case of `CNC[C@@H](O)COc1ccc(Cl)c(-c2nc(N[C@H]3CO[C@@H](C)C3)c(C)c(-c3c(C)noc3C)n2)c1` [Example 152-3], the IC50 was under 5 µM.

The compound `CCOC(=O)N1CCC2(CC1)CN(c1nc(-c3cc(OC[C@H](O)CNC)ccc3F)nc(-c3c(C)noc3C)c1C)C2` [Example 282-3] yielded an IC50 of under 5 µM.

In turn, `CCOC(=O)N1CCOC[C@@H]1CNc1nc(-c2cc(OC[C@H](O)CNC)ccc2Cl)nc(-c2c(C)noc2C)c1Cl` [Example 56-3] yielded a half-inhibitory concentration (IC50) of under 5 µM.

For `CNC[C@@H](O)COc1ccc(Cl)c(-c2nc(-c3c(C)noc3C)c(C)c(N3CCC4(CN(C(=O)OC)C4)C3)n2)c1` [Example 177-3], the IC50 was under 5 µM.

`CNC[C@@H](O)COc1cccc(-c2nc(-c3c[nH]c4ncncc34)cc(N(C)C3CCOCC3)n2)c1` [Example 571-1a]: the IC50 lay within 10 to 20 µM.

For `CNCC(O)COc1cccc(-c2nc(-c3cncnc3)cc(-c3c(C)noc3C)n2)c1` (stereo not shown) [Example 8-1a], the half-inhibitory concentration (IC50) fell in the range of 10 to 20 µM.

The compound `CNC[C@@H](O)COc1ccc(Cl)c(-c2nc(-c3c(C)noc3C)c(C)c(N3CCC4(CCN(C5CC5)C4)C3)n2)c1` (stereo partly shown) [Example 138-3] came in with an IC50 of under 5 µM.

Compound `CNCC(O)COc1cccc(-c2nc(NCC3CN(C)CCO3)c(C)c(-c3c(C)noc3C)n2)c1` (stereo not shown) [Example 171-1a] yielded an IC50 of under 5 µM.

Take `CNC[C@@H](O)COc1ccc(Cl)c(-c2nc(N[C@H]3C[C@H](OC)C3)c(C)c(-c3c(C)noc3C)n2)c1` [Example 143-3]: the IC50 was under 5 µM.

`CNCC(O)COc1cccc(-c2nc(-c3c(C)noc3C)cc(N3C[C@H]4C[C@@H]3CN4S(C)(=O)=O)n2)c1` (stereo partly shown) [Example 100-1a] displayed an IC50 of 5 to 10 µM.

Compound `CNCC(O)COc1cccc(-c2nc(N[C@@H]3CCOC3)c(C)c(N3CC[C@@H](OC)C3)n2)c1` (stereo partly shown) [Example 369-1a] displayed an IC50 of 10 to 20 µM.

On to `CNC[C@@H](O)COc1ccc(Cl)c(-c2nc(-c3cnn(C)c3)c(C)c(-c3c(C)noc3C)n2)c1` [Example 239-3], for which the IC50 is under 5 µM.

Consider `CNC[C@@H](O)COc1ccc(Cl)c(-c2nc(-c3c(C)noc3C)c(C)c(N3C[C@H]4COC[C@H]4C3)n2)c1` [Example 186-3], for which the IC50 is under 5 µM.

Regarding `CNCC(O)COc1cccc(-c2nc(-c3cc4ccccc4o3)cc(N(C)C3CCOCC3)n2)c1` (stereo not shown) [Example 570-1a], the 50% inhibitory concentration (IC50) lay within 10 to 20 µM.

With `CNCC(O)COc1cc(Cl)cc(-c2nc(-c3ccncc3)c(C)c(N(C)[C@H]3CCOC3)n2)c1` (stereo partly shown) [Example 334-1a], the IC50 lay within 10 to 20 µM.

On to `CNC[C@@H](O)COc1cccc(-c2nc(-c3cn(S(C)(=O)=O)c4ncncc34)cc(N(C)C3CCOCC3)n2)c1` [Example 511-1a], for which the half-maximal inhibitory concentration (IC50) was in the range of 5 to 10 µM.

Consider `C=C(C)c1cc(N(C)C2CCOCC2)nc(-c2cc(Cl)cc(OCC(O)CNC)c2)n1` (stereo not shown) [Example 619-1a], for which the IC50 was in the range of 10 to 20 µM.

In turn, `CNCC(O)COc1ccc(Cl)c(-c2nc(N[C@H]3CCC[C@@H](OC)C3)c(C)c(-c3c(C)noc3C)n2)c1` (stereo partly shown) [Example 57-3] had an IC50 of under 5 µM.

As to `CNC[C@@H](O)COc1ccc(Cl)c(-c2nc(-c3c(C)noc3C)c(C)c(N3CC4(CCN(C(=O)OC)CC4)C3)n2)c1` [Example 109-3], the IC50 is under 5 µM.

Compound `CNC[C@@H](O)COc1ccc(C(F)(F)F)c(-c2nc(NC3CCN(C(=O)OC)CC3)c(C)c(-c3c(C)noc3C)n2)c1` [Example 204-3] came in with an IC50 of under 5 µM.

Consider `CC[C@H]1CN(c2cc(N(C)C3CCOCC3)nc(-c3cccc(OCC(O)CNC)c3)n2)CCN1` (stereo partly shown) [Example 505-1a], for which the IC50 was under 5 µM.

Turning to `CNC[C@@H](O)COc1ccc(Cl)c(-c2nc(-c3c(C)noc3C)c(C)c(N(C)C3CC(COC)C3)n2)c1` (stereo partly shown) [Example 220-3], the IC50 is under 5 µM.

The compound `CNCC(O)COc1ccc(Cl)c(-c2nc(NC3CCOCC3)c(C)c(-c3c(C)nsc3C)n2)c1` (stereo not shown) [Example 97-3] registered an IC50 of under 5 µM.

`CNCC(O)COc1ccc(Cl)c(-c2nc(N[C@H]3CCC[C@@H](O)C3)c(C)c(-c3c(C)noc3C)n2)c1` (stereo partly shown) [Example 39-3] displayed an IC50 of under 5 µM.

In turn, `CNCC(O)COc1cccc(-c2nc(NC3C[C@@H](O)[C@H](O)C3)c(C)c(-c3c(C)noc3C)n2)c1` (stereo partly shown) [Example 280-1a] gave an IC50 of 10 to 20 µM.

Compound `CNC[C@@H](O)COc1ccc(Cl)c(-c2nc(N[C@H]3CN(C(=O)OC)C[C@@H]3F)c(C)c(-c3c(C)noc3C)n2)c1` [Example 202-3] showed an IC50 of under 5 µM.

Regarding `CNCC(O)COc1cccc(-c2nc(-c3ccnc(C)c3)cc(N(C)C3CCOCC3)n2)c1` (stereo not shown) [Example 40-1], the IC50 was in the range of 5 to 10 µM.

On to `CNCC(O)COc1cccc(-c2nc(N[C@@H]3CCN(C(=O)OC(C)(C)C)C[C@@H]3F)c(C)c(-c3c(C)noc3C)n2)c1` (stereo partly shown) [Example 227-1a], for which the IC50 was under 5 µM.

`CNC[C@@H](O)COc1ccc(F)c(-c2nc(-c3c(C)noc3C)c(Cl)c(N3CC4(CCOCC4)C3)n2)c1` [Example 294-3] gave an IC50 of under 5 µM.

On to `CCOC(=O)N1CCC(CNc2nc(-c3cccc(OCC(O)CNC)c3)nc(-c3c(C)noc3C)c2C)CC1` (stereo not shown) [Example 191-1a], for which the IC50 is under 5 µM.

In turn, `CNCC(O)COc1cccc(-c2nc(Nc3cncnc3)cc(-c3c(C)noc3C)n2)c1` (stereo not shown) [Example 21-1a] gave an IC50 of 5 to 10 µM.

`CNC[C@@H](O)COc1ccc(F)c(-c2nc(NC3CCN(C(=O)OC)CC3)c(C)c(-c3c(C)noc3C)n2)c1` [Example 40-3] showed an IC50 of under 5 µM.

On to `CNCC(O)COc1cccc(-c2nc(-c3c(C)noc3C)cc(N3C[C@@H]4C[C@H]3CN4S(C)(=O)=O)n2)c1` (stereo partly shown) [Example 80-1a], for which the 50% inhibitory concentration (IC50) fell in the range of 10 to 20 µM.

The compound `CNCC(O)COc1cccc(-c2nc(N[C@@H]3CCOC3)c(C)c(-c3cncc(C(=O)OC)c3)n2)c1` (stereo partly shown) [Example 340-1a] showed an IC50 of 10 to 20 µM.

The compound `CNCC(O)COc1cccc(-c2nc(N[C@H]3C[C@H](C(=O)OC)C3)c(C)c(-c3c(C)noc3C)n2)c1` (stereo partly shown) [Example 221-1a] came in with an IC50 of under 5 µM.

In turn, `CNC[C@@H](O)COc1ccc(Cl)c(-c2nc(-c3c(C)noc3C)c(Cl)c(N3CC4(CCOCC4)C3)n2)c1` [Example 229-3] gave an IC50 of under 5 µM.

In turn, `CCOC(=O)N1CCCCC1CNc1nc(-c2cc(OC[C@H](O)CNC)ccc2Cl)nc(-c2c(C)noc2C)c1C` (stereo partly shown) [Example 28-3] came in with an IC50 of under 5 µM.

The compound `CNC[C@@H](O)COc1ccc(Cl)c(-c2nc(N[C@H]3CO[C@H](C)C3)c(Cl)c(-c3c(C)noc3C)n2)c1` [Example 201-3] came in with an IC50 of under 5 µM.

In turn, `CNCC(O)COc1cccc(-c2nc(-c3c(C)noc3C)cc(-c3c(C)noc3C)n2)c1` (stereo not shown) [Example 3-1a] yielded an IC50 of 10 to 20 µM.

`CNCC(O)COc1cccc(-c2nc(Nc3cc(C)on3)c(C)c(-c3c(C)noc3C)n2)c1` (stereo not shown) [Example 233-1a] displayed an IC50 of 10 to 20 µM.

For `CNCC(O)COc1cccc(-c2nc(-c3c(C)noc3C)cc(N3C[C@@H]4C[C@H]3CN4C(=O)OC)n2)c1` (stereo partly shown) [Example 94-1a], the IC50 is under 5 µM.

In the case of `CNCC(O)COc1cc(Cl)cc(-c2nc(-c3cnc4ccccn34)c(C)c(N(C)C3CCOCC3)n2)c1` (stereo not shown) [Example 561-1a], the IC50 was in the range of 10 to 20 µM.

For `CNC[C@@H](O)COc1ccc(Cl)c(-c2nc(-c3c(C)noc3C)c(C)c(N3Cc4ccncc4C3)n2)c1` [Example 159-3], the IC50 was under 5 µM.

As to `CNC[C@@H](O)COc1ccc(Cl)c(-c2nc(-c3c(C)noc3C)c(C)c(N3CCC3C)n2)c1` (stereo partly shown) [Example 207-3], the IC50 is under 5 µM.

Compound `CNC[C@@H](O)COc1ccc(F)c(-c2nc(-c3c(C)noc3C)c(C)c(N3Cc4cccnc4C3)n2)c1` [Example 114-3] gave an IC50 of under 5 µM.

In turn, `CNCC(O)COc1cccc(-c2nc(NC3CCN(C4COC4)CC3)c(C)c(-c3c(C)noc3C)n2)c1` (stereo not shown) [Example 263-1a] yielded an IC50 of under 5 µM.

`CNCC(O)COc1cc(Cl)cc(-c2nc(NC3CCOCC3)c(C)c(-c3c(C)noc3C)n2)c1` (stereo not shown) [Example 47-1a]: the IC50 was under 5 µM.

In the case of `CCOC(=O)N1CCC[C@@H]1COc1nc(-c2cc(OC[C@H](O)CNC)ccc2Cl)nc(-c2c(C)noc2C)c1C` [Example 133-3], the IC50 was under 5 µM.

`CNCC(O)COc1cccc(-c2nc(-c3ncc(C)n3C)cc(N(C)C3CCOCC3)n2)c1` (stereo not shown) [Example 491-1a] came in with an IC50 of under 5 µM.
